Data: patent publication US8324390B2, “Tetrazole-substituted anthranilamides as pesticides” (Bayer CropScience AG, priority 2008, dated 2012)
Like-named read-outs stand apart in the source and are kept apart here.

What was measured:
[1] = log P determination by HPLC (EEC Directive 79/831 Annex V.A8); assay type: physicochemical
Protocol: The measurements were carried out using an Agilent 1100 LC system with a 50*4.6 Zorbax Eclipse C18 1.8 μm column (oven temperature 55° C., flow rate 2.0 ml/min).
The following mobile phases were used:
Mobile phase A: acetonitrile+1000 μl of formic acid/l
Mobile phase B: Millipore water+900 μl of formic acid/l

[2] = system: caterpillars of the armyworm (Spodoptera frugiperda); assay: Spodoptera frugiperda test (SPODFR spray treatment); assay type: in vivo; details: Spodoptera frugiperda, foliar, read-out: effect in % (caterpillars killed)
Excerpt: (§1) Solvent: 78.0 parts by weight of acetone

[3] = system: green peach aphid (Myzus persicae); assay: Myzus test (MYZUPE spray treatment); assay type: in vivo; details: Myzus persicae, foliar, read-out: effect in % (aphids killed)
Excerpt: Solvent: 78 parts by weight of acetone
as §1

[4] = system: larvae of the mustard beetle (Phaedon cochleariae); assay: Phaedon test (PHAECO spray treatment); details: Phaedon cochleariae, in Brassica rapa, foliar, read-out: effect in % (beetle larvae killed)
[5] = reversed-phase HPLC, Zorbax Eclipse C18 column, by HPLC according to EEC Directive 79/831 Annex V.A8, read-out: log P
[6] = application rate 100 g/ha, maize leaf discs
[7] = application rate 100 g/ha, Chinese cabbage leaf discs
[8] = reversed-phase HPLC, Zorbax Eclipse C18 column, determined by HPLC according to EEC Directive 79/831 Annex V.A8, read-out: log P

chromatographic logP [1, 5]	chromatographic logP [1, 8]	Structure (SMILES)	pest or weed control at 100 g/ha [2, 6]	pest or weed control at 100 g/ha [3, 7]	pest or weed control at 100 g/ha [4]	chromatographic logP ([1]; log P)	pest or weed control at 100 g/ha ([2]; in Zea mays)	pest or weed control at 100 g/ha ([3]; in Brassica rapa)	pest or weed control at 20 g/ha ([3]; in Brassica rapa)
3.5	–	CNC(=O)c1cc(Cl)cc(C)c1NC(=O)c1cc(Cn2nnc(C(F)(F)F)n2)nn1-c1ccccc1Br [Example 345]	≥ 80%	≥ 80%	≥ 80%	–	–	–	–
–	–	Cc1cc(C#N)cc(C(N)=O)c1NC(=O)c1cc(Cn2nnc(C(F)(F)F)n2)nn1-c1ncccc1Cl [Example 17]	–	–	≥ 80%	2.45	≥ 80%	≥ 80%	–
2.82	–	Cc1cc(Br)cc(C(N)=O)c1NC(=O)c1cc(Cn2nnc(C(F)(F)F)n2)nn1-c1ncccc1Br [Example 353]	≥ 80%	≥ 80%	≥ 80%	–	–	–	–
3.28	–	CNC(=O)c1cc(C#N)cc(C)c1NC(=O)c1cc(Cn2nnc(C(F)(F)F)n2)nn1-c1c(Cl)cccc1Cl [Example 312]	≥ 80%	≥ 80%	≥ 80%	–	–	–	–
–	–	CNC(=O)c1cc(Cl)cc(C)c1NC(=O)c1cc(Cn2nnc(C(F)F)n2)nn1-c1ncccc1Cl [Example 255]	–	–	≥ 80%	2.46	≥ 80%	≥ 80%	–
–	3.01	CCNC(=O)c1cc(C#N)cc(C)c1NC(=O)c1cc(Cn2nnnc2C(F)(F)F)nn1-c1ccccc1Cl [Example 492]	≥ 80%	≥ 80%	≥ 80%	–	–	–	–
–	–	O=C(NCC1CC1)c1cc(Cl)cc(Cl)c1NC(=O)c1cc(Cn2nnc(C(F)F)n2)nn1-c1ncccc1Cl [Example 289]	–	–	≥ 80%	3.01	≥ 80%	≥ 80%	–
–	–	NC(=O)c1cc(Cl)cc(Cl)c1NC(=O)c1cc(Cn2nnc(C(F)F)n2)nn1-c1ncccc1Cl [Example 305]	–	–	≥ 80%	2.31	≥ 80%	≥ 80%	–
–	–	Cc1cc(Br)cc(C(=O)NC(C)(C)C)c1NC(=O)c1cc(Cn2nnc(C(F)(F)F)n2)nn1-c1ncccc1Cl [Example 114]	–	–	≥ 80%	4	≥ 80%	≥ 80%	–
–	4.25	Cc1cc(C#N)cc(C(=O)NC(C)(C)C)c1NC(=O)c1cc(Cn2nnc(C(F)(F)C(F)(F)F)n2)nn1-c1ccccc1Cl [Example 434]	≥ 80%	≥ 80%	≥ 80%	–	–	–	–
–	2.94	CCNC(=O)c1cc(C#N)cc(C)c1NC(=O)c1cc(Cn2nnnc2C(F)(F)C(F)(F)F)nn1-c1ncccc1Br [Example 519]	≥ 80%	≥ 80%	≥ 80%	–	–	–	–
–	–	CC(C)(C)NC(=O)c1cc(Cl)cc(Cl)c1NC(=O)c1cc(Cn2nnc(C(F)(F)F)n2)nn1-c1ncccc1Cl [Example 60]	–	–	≥ 80%	3.78	≥ 80%	≥ 80%	–
–	3.87	CCNC(=O)c1cc(C#N)cc(C)c1NC(=O)c1cc(Cn2nnc(C(F)(F)C(F)(F)F)n2)nn1-c1ccccc1Cl [Example 532]	≥ 80%	≥ 80%	≥ 80%	–	–	–	–
–	3.84	Cc1cc(C#N)cc(C(=O)NCC(C)C)c1NC(=O)c1cc(Cn2nnc(C(F)(F)F)n2)nn1-c1ccccc1Cl [Example 533]	≥ 80%	≥ 80%	≥ 80%	–	–	–	–
–	–	Cc1cc(F)cc(C(N)=O)c1NC(=O)c1cc(Cn2nnc(C(F)(F)F)n2)nn1-c1ncccc1Cl [Example 45]	–	–	≥ 80%	2.46	≥ 80%	≥ 80%	–
–	–	CCNC(=O)c1cc(C#N)cc(C)c1NC(=O)c1cc(Cn2nnc(C(F)F)n2)nn1-c1ncccc1Cl [Example 265]	–	–	≥ 80%	2.36	≥ 80%	≥ 80%	–
–	–	Cc1cc(C#N)cc(C(=O)NC(C)C)c1NC(=O)c1cc(Cn2nnnc2C(F)(F)F)nn1-c1ncccc1Cl [Example 165]	–	–	≥ 80%	2.72	≥ 80%	≥ 80%	–

chromatographic logP [1, 5]	chromatographic logP [1, 8]	Structure (SMILES)	pest or weed control at 100 g/ha [2, 6]	pest or weed control at 100 g/ha [3, 7]	pest or weed control at 100 g/ha [4]	chromatographic logP ([1]; log P)	pest or weed control at 100 g/ha ([2]; in Zea mays)	pest or weed control at 100 g/ha ([3]; in Brassica rapa)	pest or weed control at 20 g/ha ([3]; in Brassica rapa)
–	–	CCOCCNC(=O)c1cc(C#N)cc(C)c1NC(=O)c1cc(Cn2nnc(C(F)(F)F)n2)nn1-c1ncccc1Cl [Example 211]	–	–	≥ 80%	2.99	≥ 80%	≥ 80%	–
–	3.41	Cc1cc(I)cc(C(=O)NC(C)C)c1NC(=O)c1cc(Cn2nnnc2C(F)(F)F)nn1-c1ncccc1Br [Example 504]	≥ 80%	≥ 80%	≥ 80%	–	–	–	–
–	–	Cc1cc(C#N)cc(C(=O)NC(C)(C)C)c1NC(=O)c1cc(Cn2nnnc2C(F)(F)C(F)(F)F)nn1-c1ncccc1Cl [Example 446]	–	–	≥ 80%	3.47	≥ 80%	≥ 80%	–
–	–	Cc1cc(Cl)cc(C(=O)NC(C)C)c1NC(=O)c1cc(Cn2nnnc2C(F)(F)C(F)(F)F)nn1-c1ncccc1Cl [Example 201]	–	–	≥ 80%	3.59	≥ 80%	≥ 80%	–
–	–	O=C(NC1CC1)c1cc(Cl)cc(Cl)c1NC(=O)c1cc(Cn2nnc(C(F)(C(F)(F)F)C(F)(F)F)n2)nn1-c1ncccc1Cl [Example 339]	–	–	≥ 80%	3.89	≥ 80%	≥ 80%	–
–	–	CCC(C)NC(=O)c1cc(C#N)cc(C)c1NC(=O)c1cc(Cn2nnc(C(F)(F)F)n2)nn1-c1ncccc1Cl (stereo not shown) [Example 97]	–	–	≥ 80%	3.32	≥ 80%	–	≥ 80%
–	2.72	CNC(=O)c1cc(C#N)cc(C)c1NC(=O)c1cc(Cn2nnnc2C(F)(F)C(F)(F)F)nn1-c1ncccc1Br [Example 516]	≥ 80%	≥ 80%	≥ 80%	–	–	–	–
–	2.79	CNC(=O)c1cc(Cl)cc(C)c1NC(=O)c1cc(Cn2nnnc2C(F)(F)F)nn1-c1ncccc1Br [Example 480]	≥ 80%	≥ 80%	≥ 80%	–	–	–	–
4.63	–	CSC[C@H](C)NC(=O)c1cc(I)cc(C)c1NC(=O)c1cc(Cn2nnc(C(F)(C(F)(F)F)C(F)(F)F)n2)nn1-c1ncccc1Cl [Example 385]	≥ 80%	≥ 80%	≥ 80%	–	–	–	–
2.67	–	Cc1cc(C#N)cc(C(N)=O)c1NC(=O)c1cc(Cn2nnc(C(F)(F)F)n2)nn1-c1ncccc1C(F)(F)F [Example 236]	≥ 80%	≥ 80%	≥ 80%	–	–	–	–
–	2.73	CNC(=O)c1cc(S(C)(=O)=O)cc(C)c1NC(=O)c1cc(Cn2nnc(C(F)(F)F)n2)nn1-c1ccccc1Cl [Example 441]	≥ 80%	≥ 80%	≥ 80%	–	–	–	–
–	–	Cc1cc(Cl)cc(C(=O)NCC2CC2)c1NC(=O)c1cc(Cn2nnc(C(F)F)n2)nn1-c1ncccc1Cl [Example 259]	–	–	≥ 80%	3.04	≥ 80%	≥ 80%	–
–	3.52	Cc1cc(Cl)cc(C(=O)NC(C)(C)C)c1NC(=O)c1cc(Cn2nnnc2C(F)(F)F)nn1-c1ncccc1Br [Example 484]	≥ 80%	≥ 80%	≥ 80%	–	–	–	–
–	–	Cc1cc(C#N)cc(C(=O)NC(C)C2CC2)c1NC(=O)c1cc(Cn2nnnc2C(F)F)nn1-c1ncccc1Cl (stereo not shown) [Example 467]	–	–	≥ 80%	2.58	≥ 80%	≥ 80%	–
4.25	–	Cc1cc(I)cc(C(=O)NC(C)(C)C)c1NC(=O)c1cc(Cn2nnc(C(F)(F)F)n2)nn1-c1ncccc1C(F)(F)F [Example 242]	≥ 80%	≥ 80%	≥ 80%	–	–	–	–
–	–	CC(NC(=O)c1cc(Cl)cc(Cl)c1NC(=O)c1cc(Cn2nnnc2C(F)(F)C(F)(F)F)nn1-c1ncccc1Cl)C1CC1 (stereo not shown) [Example 448]	–	–	≥ 80%	3.81	≥ 80%	≥ 80%	–
–	–	CSC[C@H](C)NC(=O)c1cc(C)cc(C)c1NC(=O)c1cc(Cn2nnc(C(F)(F)F)n2)nn1-c1ncccc1Cl [Example 86]	–	–	≥ 80%	3.5	≥ 80%	≥ 80%	–
